Data set [1] has as its target T1, hMC4R (Homo sapiens, UniProt P32245).
T1 construct: Flag; expressed in transfected cells
In words: cAMP Signaling | EC50 (nM). The method, then: Table printed on a drawing sheet, Figure 20
The cAMP signaling potency was determined by AlphaScreen™ assays. […] The reported errors are the standard error of the mean (SEM) determined from at least three independent experiments. Changes less than 3-fold were considered to be within the inherent experimental assay error.
Target sequence in this assay (P32245 whole entry, looked up): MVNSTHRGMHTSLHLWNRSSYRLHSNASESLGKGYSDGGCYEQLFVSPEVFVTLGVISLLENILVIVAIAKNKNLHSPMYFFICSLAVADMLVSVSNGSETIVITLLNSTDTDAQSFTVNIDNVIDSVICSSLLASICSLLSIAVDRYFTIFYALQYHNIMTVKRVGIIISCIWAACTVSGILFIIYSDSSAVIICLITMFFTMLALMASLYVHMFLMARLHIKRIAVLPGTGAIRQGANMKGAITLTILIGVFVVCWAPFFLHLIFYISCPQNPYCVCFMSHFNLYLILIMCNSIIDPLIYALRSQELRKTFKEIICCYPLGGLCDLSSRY

For data set [2], the target named is T1, hMC4R. Description: β-Arrestin Recruitment | EC50 (nM). Background: Activated receptors often draw arrestin, which recruitment assays turn into a signal.
Target sequence in this assay (P32245 whole entry, looked up): as above
The target of data set [3] is mMC4R-NanoLuc and mMC4R-HaloTag homodimer (Mus musculus, UniProt P56450). In words: NanoBRET ligand-dependent modulation of BRET signal. The following applies: for reduction in BRET signal compared to basal signal: ligand at 10 μM; for change in BRET signal (in words): 10^−5, 10^−7 and 10^−9 M vs assay buffer.
Chain of mMC4R-NanoLuc and mMC4R-HaloTag homodimer (P56450 whole entry): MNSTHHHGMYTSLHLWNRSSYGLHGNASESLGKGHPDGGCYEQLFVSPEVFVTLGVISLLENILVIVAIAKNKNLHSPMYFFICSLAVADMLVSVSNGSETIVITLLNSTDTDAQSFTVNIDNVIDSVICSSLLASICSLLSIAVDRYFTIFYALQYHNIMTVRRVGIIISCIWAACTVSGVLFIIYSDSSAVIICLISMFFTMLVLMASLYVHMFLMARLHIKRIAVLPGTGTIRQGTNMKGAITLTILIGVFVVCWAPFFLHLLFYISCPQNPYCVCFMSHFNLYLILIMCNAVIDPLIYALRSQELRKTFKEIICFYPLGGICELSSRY
Chain of mMC4R-NanoLuc and mMC4R-HaloTag homodimer (P56450 whole entry): as above
Protocol: On the first day, cells were plated into 6 well plates in the morning. In the afternoon of the same day, cells were transiently transfected with mMC4R-NanoLuc® fusion protein and the MC4R-HaloTag® fusion protein by adding FuGene6 Transfection (8 μL/well, Promega), DNA (2 μg/well) in OptiMem medium (Invitrogen) at a total volume of 100 μL/well. […] Cells were incubated with transfection reagent overnight at 5% CO2 at 37° C.
This provides the background signal and was subtracted from the final experimental signal. Plates were then developed 48 to 60 hours after transfection. Two hours before the plates were developed, 10 μL of a 10× aliquot of the ligand diluted in assay buffer was added to each well to yield the final in well concentration (10^−5, 10^−7, or 10^−9M) of each compound. For the assay buffer control, 10 μL of assay buffer was added instead of compound. […] The standard error of the mean (SEM) was derived from at least three independent experiments.
Data set [4] deals with male MC3RKO mice. In words: ICV administration, TSE metabolic cages, male MC3RKO mice. It is filed as in vivo. The following applies: nocturnal paradigm; 2.5 to 5 nmols. The method, then:
(§1) All experiments were performed in accordance with the Institutional Animal Care and Use Committee (IACUC) at the University of Minnesota. Female and male littermates with mixed background from C57BL/6J and 129/Sv inbred strains were 8 weeks old at the time of surgeries. Mice were individually housed after surgeries and for the remainder of the experiment. Mice were maintained on a 12 hr light/dark cycle (Lights off was at 11:59 AM) in a temperature controlled room (23-25° C.). In the nocturnal feeding paradigm, mice had free access to normal chow (Harlan Teklad 2018 Diet: 18.6% crude protein, 6.2% crude fat, 3.5% crude fiber, with energy density of 3.1 kcal/g). […] Mice had free access to tap water throughout all the experiments. The cannula placement validation studies and conventional cage studies were performed in standard mouse polycarbonate conventional cages provided by University of Minnesota's Research Animal Resources (RAR). Weekly cage changes were conducted by lab research staff.
(§2) Mice were anesthetize with a mixture of ketamine (100 mg/kg) and xylazine (5 mg/kg) and were positioned in a stereotaxic apparatus (David Kopf Instruments). A 26-gauge cannula (Cat# 81C315GS4SPC; PlasticsOne, Roanoke, Va.) was inserted in the lateral cerebral ventricle at the coordinates 1.0 mm lateral and 0.46 mm posterior to bregma and 2.3 mm ventral to the skull (Franklin, K. B. J. & Paxinos, G. The Mouse Brain in Stereotaxic Coordinates. (Academic Press, 1997)).
(§3) As stated above, conventional cage experiments were performed in standard mouse polycarbonate conventional cages. […] All experiments followed a cross-over paradigm in which the mouse received saline and compound on different days with a washout period in between each treatment. Statistical analysis was performed using SPSS V23 software (IBM) using a multivariate general linear model followed by a Bonferroni's post hoc test. Results are presented as Mean±SEM. Statistically significant was considered p<0.05.
In order to more clearly understand the effects of the biased agonism at the MC4R, the effects of administration of CJL-5-58 was explored in MC3R knockout (KO) mice and MC4RKO mice. […] Adverse reactions included two mice dying after the 5 nmol dose. […] The large error in activity may serve as an indication of toxicity. It is currently difficult to decipher whether the adverse reactions observed are due to paradigm effects, genotype difference, or compound toxicity.

The test system of data set [5] is male wild type mice. It is filed as in vivo. The following applies: nocturnal paradigm; 5.0 or 2.5 nmols CJL-1-124. The method, then:
as §1, §2
(§4) Each mouse was administered hPYY and saline on different days following a crossover design in the nocturnal feeding paradigm. In the nocturnal paradigm, compound is administered 2 hours prior to lights out with free access to food and water throughout the entire experiment. There was at least a 4 day washout period between administration to ensure that normal feeding patterns and body weight returned. Food intake and body weight were manually measured 2, 4, and 6 hours after hPYY or saline administration. A mouse with a validated cannula placement for the TSE cage experiments consumed at least 1.0 g more after hPYY administration compared to saline administration 4 hours post-administration.
as §3

Data set [6] has as its system male MC4RKO mice. In words: ICV administration, conventional cages, male MC4RKO mice. It is filed as in vivo. The following applies: ICV 2.5 to 5 nmols; conventional cages. Here is the method: as §1, §2, §3
In male MC4RKO mice, CJL-5-58 was administered at 5 nmols in both a nocturnal paradigm and a fasting-refeeding paradigm in standard conventional cages (FIG. 15). The dose was well handled in the nocturnal paradigm, but minimal effect was observed.

Data set [7] has as its target T1, hMC4R. In words: AlphaScreen cAMP functional bioassay, hMC4R. It is filed as cell-based. The following applies: HEK293 cells stably expressing hMC4R. The method, then:
Upon agonist stimulation, melanocortin receptors are known to signal through a Gαs-protein mediated signaling pathway that results in intracellular cAMP accumulation.
Stable populations were selected for using G418 selection (0.7-1.0 mg/mL) and used in bioassays unless indicated otherwise. In vitro experimental ligands were dissolved to a 10^−2 M stock in DMSO and stored at −20° C. Subsequent dilutions were performed in each assay's specific buffer to achieve the final concentration in the well. The ligands were assayed as TFA salts.
AlphaScreen cAMP Functional Bioassay
The AlphaScreen® assay was performed as described by manufacturer.
Cells were removed from plates using Gibco® Versene solution and pelleted by centrifugation (Sorvall Super T21 high speed centrifuge, swinging bucket rotor) at 800 rpm for five minutes. […] A 10 μL aliquot of cell suspension was counted manually using a hemocytometer after addition of Trypan blue dye (BioRad). Cells were again pelleted by centrifugation, and DPBS was gently aspirated. The pelleted cells were then resuspended in a solution of freshly made stimulation buffer (Hank's Balanced Salt Solution [HBSS 10× [−] sodium bicarbonate] and [−] phenol red, Gibco®], 0.5 mM isobutylmethylxanthine [IBMX], 5 mM HEPES buffer solution [1M, Gibco®], 0.1% bovine serum albumin [BSA] in Milli-Q water, pH=7.4) and anti-cAMP acceptor beads (1.0 unit per well, AlphaScreen®). […] The cells were then stimulated with ligand diluted in stimulation buffer to achieve their final concentrations in the well ranging from 10^−13 to 10^−4 M. The stimulated plates were incubated in a dark laboratory drawer at room temperature for two hours.
Meanwhile, a biotinylated cAMP/streptavidin donor bead working solution was made by adding biotinylated cAMP (1 Unit/well, AlphaScreen®) and streptavidin donor beads (1 Unit/well, AlphaScreen®) to a lysis buffer (10% Tween-20, 5 mM HEPES buffer solution [1M, Gibco®], 0.1% bovine serum albumin [BSA] in Milli-Q water, pH=7.4). After the two hour stimulation, the biotinylated cAMP/Streptavidin donor bead working solution was added to each well under green light and mixed well by pipetting up and down. The cells were incubated for another two hours at room temperature in a dark drawer at room temperature. The plate was then read on an EnSpire™ Alpha plate reader using a pre-normalized assay protocol set by the manufacturer. Assays were performed with duplicate data points on each plate and repeated in at least three independent experiments.
Dose response curves were analyzed using the PRISM program (v4.0; GraphPad Inc.).
Background: In Alpha technology, singlet oxygen from a donor bead excites a nearby acceptor bead.
Target sequence in this assay (P32245 whole entry): as the sequence (P32245 whole entry, looked up) above

Data set [8] has as its system wild type mice. In words: ICV administration, conventional cages, wild type mice. It is filed as in vivo. The following applies: preliminary conventional cage experiments; fasting paradigm. Here is the method:
as §1, §2, §4, §3

“Also recorded” adds a separate entry of the source. Square brackets hold non-standard residues; d marks the D form. Peptide text beside a SMILES is read from it.

What is called EC50 is the concentration giving half of the maximal effect. A low value points to higher potency in that assay.

Turning to `CC(=O)N[C@@H](Cc1c[nH]cn1)C(=O)N[C@H](Cc1ccccc1)C(=O)N[C@@H](CCCNC(=N)N)C(=O)N[C@@H](Cc1c[nH]c2ccccc12)C(=O)N1CCC[C@H]1C(=O)NCC(=O)N1CCC[C@H]1C(=O)NCC(=O)N1CCC[C@H]1C(=O)NCC(=O)N1CCC[C@H]1C(=O)NCC(=O)N1CCC[C@H]1C(=O)NCC(=O)N1CCC[C@H]1C(=O)NCC(N)=O` [CJL5-35-1, Ac-His-DPhe-Arg-Trp-(Pro-Gly)6-NH2] (Ac-H[dF]RWPGPGPGPGPGPG-NH2), the EC50 in data set [1] was found to be 5.5 ± 0.7 nM; in data set [2], 1600 ± 600 nM.

For the compound `CC(=O)N[C@@H](Cc1c[nH]cn1)C(=O)N[C@H](Cc1ccccc1)C(=O)N[C@@H](CCCNC(=N)N)C(=O)N[C@@H](Cc1c[nH]c2ccccc12)C(=O)N1CCC[C@H]1C(=O)NCC(=O)N1CCC[C@H]1C(=O)NCC(=O)N1CCC[C@H]1C(=O)NCC(=O)N1CCC[C@H]1C(=O)NCC(=O)N1CCC[C@H]1C(=O)NCC(=O)N1CCC[C@H]1C(=O)NCC(=O)N[C@@H](Cc1c[nH]cn1)C(=O)N[C@H](Cc1ccccc1)C(=O)N[C@@H](CCCNC(=N)N)C(=O)N[C@@H](Cc1c[nH]c2ccccc12)C(N)=O` [CJL-1-31, Ac-His-DPhe-Arg-Trp-(Pro-Gly)6-His-DPhe-Arg-Trp-NH2] (Ac-H[dF]RWPGPGPGPGPGPGH[dF]RW-NH2), the EC50 was found to be 0.95 ± 0.08 nM in data set [1] and 1900 ± 600 nM in data set [2].

`N=C(N)NCCC[C@H](NC(=O)[C@@H](Cc1ccccc1)NC(=O)[C@H](Cc1c[nH]cn1)NC(=O)CNC(=O)[C@@H]1CCCN1C(=O)CNC(=O)[C@@H]1CCCN1C(=O)CNC(=O)[C@@H]1CCCN1C(=O)CNC(=O)[C@@H]1CCCN1C(=O)CNC(=O)[C@@H]1CCCN1C(=O)CNC(=O)[C@@H]1CCCN1)C(=O)N[C@@H](Cc1c[nH]c2ccccc12)C(N)=O` [CJL-1-41, (Pro-Gly)6-His-DPhe-Arg-Trp-NH2] (H-PGPGPGPGPGPGH[dF]RW-NH2; N-terminus assumed): the results for the EC50 in data set [1] and in data set [2] were 1.1 ± 0.07 nM and 1500 ± 500 nM, respectively.

For `CC(=O)N[C@@H](Cc1c[nH]cn1)C(=O)N[C@H](Cc1ccccc1)C(=O)N[C@@H](CCCNC(=N)N)C(=O)N[C@@H](Cc1c[nH]c2ccccc12)C(=O)NCCCOCCOCCOCCCNC(=O)COCC(=O)N[C@@H](Cc1c[nH]cn1)C(=O)N[C@H](Cc1ccccc1)C(=O)N[C@@H](CCCNC(=N)N)C(=O)N[C@@H](Cc1c[nH]c2ccccc12)C(N)=O` [CJL-1-87], the “reduction in BRET signal compared to basal signal” value (shortened to “reduction in BRET signal”) in data set [3] was roughly 15%.

On to `CC(=O)N[C@@H](Cc1cnc[nH]1)C(=O)N[C@H](Cc1ccc2ccccc2c1)C(=O)N[C@@H](CCCNC(=N)N)C(=O)N[C@@H](Cc1c[nH]c2ccccc12)C(=O)NCCCOCCOCCOCCCNC(=O)COCC(=O)N[C@@H](Cc1cnc[nH]1)C(=O)N[C@H](Cc1ccccc1)C(=O)N[C@@H](CCCNC(=N)N)C(=O)N[C@@H](Cc1c[nH]c2ccccc12)C(N)=O` [CJL-1-124, Ac-His-DNal(2′)-Arg-Trp-(PEDG20)-His-DPhe-Arg-Trp-NH2], for which the results for the “adverse reactions / toxicity” value in data set [4] and in data set [5] were “some signs of toxicity were observed; also recorded: Some toxicity was observed” and “some signs of adverse reactions observed at higher 5 nmol dose; also recorded: Some toxicity was observed”, respectively. Moreover, the “reduction in BRET signal” value in data set [3] was roughly 8%. The toxicity result in data set [6] is given as “some signs of toxicity were observed; also recorded: Some toxicity was observed”. Further, in data set [7], the “cAMP agonist potency (in words)” value is “single digit nanomolar agonists”. Further, the adverse effects entry in data set [8] is “strong adverse effects”.

Regarding `CC(=O)N[C@@H](Cc1c[nH]cn1)C(=O)N[C@H](Cc1ccccc1)C(=O)N[C@@H](CCCNC(=N)N)C(=O)N[C@@H](Cc1c[nH]c2ccccc12)C(=O)NCCCOCCOCCOCCCNC(=O)COCC(=O)NCCCOCCOCCOCCCNC(=O)COCC(=O)N[C@@H](Cc1c[nH]cn1)C(=O)N[C@H](Cc1ccccc1)C(=O)N[C@@H](CCCNC(=N)N)C(=O)N[C@@H](Cc1c[nH]c2ccccc12)C(N)=O` [CJL-5-72, Ac-His-DPhe-Arg-Trp-(PEDG20)-(PEDG20)-His-DPhe- Arg-Trp-NH2], the EC50 was 1.2 ± 0.3 nM in data set [1] and 280 ± 40 nM in data set [2].

As to “Ac-His-DNal(2′)-Arg-Trp-(PEDG20)-(PEDG20)-His-DPhe-Arg-Trp-NH2 [CJL-5-74, MUmBL; linker assigned from order of b161-b164 and b248]”, in data set [7], the “cAMP agonist potency (in words)” value was “single digit nanomolar agonists”.

Ac-His-DPhe-Arg-Trp-NH2 [CJL-1-14]: in data set [3], the “change in BRET signal (in words)” value is on record as “dose dependent decrease in BRET signal” and the “reduction in BRET signal” value came out at 15%.

Turning to α-MSH, in data set [3], the “change in BRET signal (in words)” value was “dose dependent decrease in BRET signal” and the “reduction in BRET signal” value is on record as 15%.

The values above are taken from patent US20180360972A1, “THERAPEUTIC COMPOUNDS” (REGENTS OF THE UNIVERSITY OF MINNESOTA, priority 2017, published 2018).
